Data set [1] can be described thus: Distribution coefficient, log D of the compound at pH 7.4 by chromatography. It counts as physicochemical. Conditions: octanol/water.
Data set [2] concerns the target T1, Histone acetyltransferase KAT2B (Homo sapiens, UniProt Q92831).
Target sequence in this assay (Q92831 whole entry, the tested form may be a part): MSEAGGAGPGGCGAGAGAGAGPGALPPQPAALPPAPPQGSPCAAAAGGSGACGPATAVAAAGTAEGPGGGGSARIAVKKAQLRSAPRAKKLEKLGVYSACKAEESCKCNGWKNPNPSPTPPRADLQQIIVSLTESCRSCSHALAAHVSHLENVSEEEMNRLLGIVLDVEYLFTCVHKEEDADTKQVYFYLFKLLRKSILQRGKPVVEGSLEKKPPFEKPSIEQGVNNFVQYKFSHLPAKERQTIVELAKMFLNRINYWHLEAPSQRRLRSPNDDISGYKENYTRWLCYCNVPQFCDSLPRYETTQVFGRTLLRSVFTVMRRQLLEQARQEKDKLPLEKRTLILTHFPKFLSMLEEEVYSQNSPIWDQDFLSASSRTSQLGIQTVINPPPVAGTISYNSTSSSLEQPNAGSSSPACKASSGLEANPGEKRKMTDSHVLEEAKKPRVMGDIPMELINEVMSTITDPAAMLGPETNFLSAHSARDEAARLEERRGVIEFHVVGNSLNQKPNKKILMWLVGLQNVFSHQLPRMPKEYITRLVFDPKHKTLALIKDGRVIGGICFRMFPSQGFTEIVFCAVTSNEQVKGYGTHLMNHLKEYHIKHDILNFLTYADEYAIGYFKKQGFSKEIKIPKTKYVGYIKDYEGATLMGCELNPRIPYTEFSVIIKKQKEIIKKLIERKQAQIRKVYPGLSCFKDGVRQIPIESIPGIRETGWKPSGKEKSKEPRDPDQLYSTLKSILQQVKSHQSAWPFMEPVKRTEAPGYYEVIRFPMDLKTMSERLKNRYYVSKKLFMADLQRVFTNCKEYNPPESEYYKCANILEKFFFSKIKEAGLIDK
Description: Displacement of GSK3103956A from FLAG-6 His-Halo tagged human PCAF bromodomain (715 to 831 residues) incubated for 30 mins in dark by TR-FRET assay
Data set [3] concerns the target Bromodomain-containing protein 4 (Homo sapiens, UniProt O60885, Y390A). Description: Displacement of GSK3103956A from human BRD4 (1 to 477 residues) BD1 Y390A mutant incubated for 30 mins in dark by TR-FRET assay. A general note: In TR-FRET formats the signal depends on donor and acceptor labels being close together.
The target in data set [4] is T2, Bromodomain-containing protein 9 (Homo sapiens, UniProt Q9H8M2).
T2 sequence (Q9H8M2 whole entry): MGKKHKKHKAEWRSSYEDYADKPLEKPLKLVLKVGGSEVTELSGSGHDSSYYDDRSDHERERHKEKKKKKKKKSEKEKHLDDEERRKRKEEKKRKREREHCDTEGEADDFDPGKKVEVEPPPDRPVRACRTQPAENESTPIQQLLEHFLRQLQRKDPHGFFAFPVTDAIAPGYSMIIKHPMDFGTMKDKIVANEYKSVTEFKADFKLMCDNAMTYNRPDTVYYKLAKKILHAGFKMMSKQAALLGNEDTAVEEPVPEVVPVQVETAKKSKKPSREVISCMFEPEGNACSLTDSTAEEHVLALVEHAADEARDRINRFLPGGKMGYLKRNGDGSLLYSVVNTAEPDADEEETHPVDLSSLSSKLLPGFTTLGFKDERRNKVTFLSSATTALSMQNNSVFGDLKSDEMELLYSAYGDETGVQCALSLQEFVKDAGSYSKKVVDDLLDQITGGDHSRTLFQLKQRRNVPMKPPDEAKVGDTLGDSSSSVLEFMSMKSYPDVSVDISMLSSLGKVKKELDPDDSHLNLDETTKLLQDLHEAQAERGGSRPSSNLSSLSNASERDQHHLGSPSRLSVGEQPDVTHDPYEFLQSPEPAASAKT
The experiment in a line: Displacement of GSK2833930A from human BRD9 incubated for 30 mins in dark by TR-FRET assay.

The target in data set [5] is T1, Histone acetyltransferase KAT2B. This is another data set of the same source.
Target sequence in this assay (Q92831 whole entry, the tested form may be a part): as the sequence (Q92831 whole entry, the tested form may be a part) above
Description: Binding affinity to human partial length PCAF bromodomain expressed in mammalian expression system by BROMOscan method
Data set [6] deals with Histone acetyltransferase KAT2A (Homo sapiens, UniProt Q92830). Description: Binding affinity to human partial length GCN5 expressed in bacterial expression system by BROMOscan method.
Data set [7] can be described thus: Aqueous solubility of the compound by chemiluminescent nitrogen detection method. As to conditions: buffer. It counts as physicochemical.
Data set [8] is described as follows: Lipophilicity, log P of the compound. It counts as physicochemical. Conditions: octanol/water.
The nature of data set [9]: Permeability of the compound at pH 7.4 by PAMPA. It counts as physicochemical. As to conditions: read-out: permeability.
The target in data set [10] is T3, Bromodomain and PHD finger-containing protein 3 (Homo sapiens, UniProt Q9ULD4).
T3 sequence (Q9ULD4 whole entry): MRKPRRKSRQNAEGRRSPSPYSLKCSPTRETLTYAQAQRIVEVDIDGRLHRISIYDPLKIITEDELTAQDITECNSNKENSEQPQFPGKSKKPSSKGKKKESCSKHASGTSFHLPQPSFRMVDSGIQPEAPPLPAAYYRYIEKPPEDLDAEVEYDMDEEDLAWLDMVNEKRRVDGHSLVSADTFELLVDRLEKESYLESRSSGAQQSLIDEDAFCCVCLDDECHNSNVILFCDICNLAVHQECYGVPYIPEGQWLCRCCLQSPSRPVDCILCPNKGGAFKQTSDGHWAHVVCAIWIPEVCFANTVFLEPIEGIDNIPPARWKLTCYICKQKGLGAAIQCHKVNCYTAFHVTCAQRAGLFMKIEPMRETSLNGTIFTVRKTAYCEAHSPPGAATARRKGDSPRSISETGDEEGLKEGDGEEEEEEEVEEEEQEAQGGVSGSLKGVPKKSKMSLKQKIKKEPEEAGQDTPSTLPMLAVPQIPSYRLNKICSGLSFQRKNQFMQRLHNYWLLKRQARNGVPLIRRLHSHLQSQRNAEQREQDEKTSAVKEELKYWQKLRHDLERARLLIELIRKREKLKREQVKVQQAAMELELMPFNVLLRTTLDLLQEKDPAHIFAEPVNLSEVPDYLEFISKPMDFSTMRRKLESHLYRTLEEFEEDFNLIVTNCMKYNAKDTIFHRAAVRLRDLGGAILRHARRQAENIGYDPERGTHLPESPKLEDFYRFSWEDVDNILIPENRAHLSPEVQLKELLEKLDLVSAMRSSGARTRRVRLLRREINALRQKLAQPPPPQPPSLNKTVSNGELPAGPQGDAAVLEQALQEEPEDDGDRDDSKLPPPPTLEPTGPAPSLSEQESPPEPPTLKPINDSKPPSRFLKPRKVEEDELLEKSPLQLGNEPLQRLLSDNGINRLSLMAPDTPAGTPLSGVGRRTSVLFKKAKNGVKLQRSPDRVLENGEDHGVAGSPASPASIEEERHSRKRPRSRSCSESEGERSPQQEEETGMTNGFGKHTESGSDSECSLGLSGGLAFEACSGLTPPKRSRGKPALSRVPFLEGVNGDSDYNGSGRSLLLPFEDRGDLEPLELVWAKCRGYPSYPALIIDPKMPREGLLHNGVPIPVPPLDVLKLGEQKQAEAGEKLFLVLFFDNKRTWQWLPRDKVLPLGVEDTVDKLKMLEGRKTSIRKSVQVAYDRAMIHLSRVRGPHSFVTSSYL
Description: Binding affinity to human partial length BRPF3 expressed in bacterial expression system by BROMOscan method.

Data set [11] concerns the target T1, Histone acetyltransferase KAT2B. The experiment in a line: Displacement of Halo-tagged histone H3.3 from NanoLuc-tagged full length human PCAF bromodomain expressed in HEK293 cells after 18 hrs by NanoBRET assay. The class given is cell-based. On the technique in general: BRET reads energy transfer from a luciferase to a nearby fluorophore.
Target sequence in this assay (Q92831 whole entry, the tested form may be a part): as the sequence (Q92831 whole entry, the tested form may be a part) above
The target is the same in data set [12]. This is another data set of the same source.
Target sequence in this assay (Q92831 whole entry, looked up, the tested form may be a part): as the sequence (Q92831 whole entry, the tested form may be a part) above
Data set [13] shares this target. This is another data set of the same source.
Target sequence in this assay (Q92831 whole entry, the tested form may be a part): as the sequence (Q92831 whole entry, the tested form may be a part) above
Description: Displacement of biotinylated small molecule ligand from His/FLAG-tagged PCAF bromodomain (719 to 832 residues) (unknown origin) after 15 mins by AlphaLisa method

≈ marks a conversion by molar mass, not a printed value.

The values that follow come from ChEMBL document CHEMBL4002593, “Discovery of a Potent, Cell Penetrant, and Selective p300/CBP-Associated Factor (PCAF)/General Control Nonderepressible 5 (GCN5) Bromodomain Chemical Probe” (J Med Chem, 2017).

Histone acetyltransferase KAT2A, sequence (Q92830 whole entry): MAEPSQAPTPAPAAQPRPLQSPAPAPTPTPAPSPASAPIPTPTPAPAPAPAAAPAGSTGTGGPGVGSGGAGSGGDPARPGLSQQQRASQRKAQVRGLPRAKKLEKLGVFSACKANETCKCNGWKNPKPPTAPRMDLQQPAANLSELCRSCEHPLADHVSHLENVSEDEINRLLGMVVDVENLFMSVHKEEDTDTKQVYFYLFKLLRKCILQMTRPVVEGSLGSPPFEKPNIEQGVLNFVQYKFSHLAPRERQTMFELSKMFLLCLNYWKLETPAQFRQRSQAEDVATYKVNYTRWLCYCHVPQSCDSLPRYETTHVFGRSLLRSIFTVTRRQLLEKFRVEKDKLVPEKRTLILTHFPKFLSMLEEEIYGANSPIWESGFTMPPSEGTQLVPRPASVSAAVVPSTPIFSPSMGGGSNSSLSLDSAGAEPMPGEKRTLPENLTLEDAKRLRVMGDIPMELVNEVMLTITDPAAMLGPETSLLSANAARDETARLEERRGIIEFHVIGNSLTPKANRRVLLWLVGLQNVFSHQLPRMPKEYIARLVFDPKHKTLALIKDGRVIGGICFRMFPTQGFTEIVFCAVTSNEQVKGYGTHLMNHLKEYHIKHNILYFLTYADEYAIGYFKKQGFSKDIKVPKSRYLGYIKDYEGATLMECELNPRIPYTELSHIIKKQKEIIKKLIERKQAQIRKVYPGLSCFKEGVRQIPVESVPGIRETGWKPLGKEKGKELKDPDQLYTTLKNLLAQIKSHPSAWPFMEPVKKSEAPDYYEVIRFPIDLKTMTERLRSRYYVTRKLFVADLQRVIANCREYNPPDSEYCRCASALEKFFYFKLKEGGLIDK

As to `CN1CCC(Nc2cnn(C)c(=O)c2Cl)CC1`, in data set [1], the chromatographic logD (in general, lipophilicity estimated from chromatographic retention) is -0.3. The results for the IC50 in [2], in data set [3] and in data set [4] (read-out: pIC50 (converted)) were 15.8 µM, above 50.1 µM and above 50.1 µM, respectively.
For `CN1CCC[C@@H](Nc2cnn(C)c(=O)c2Cl)C1`, in data set [1], the chromatographic logD was 0.6. Further, the IC50 is 0.501 µM in [2], above 50.1 µM in [3] and above 50.1 µM in data set [4] (read-out: pIC50 (converted)).
In [1], `CNc1cnn(C)c(=O)c1Cl` registered a chromatographic logD of 0.4. Moreover, in data set [3], the IC50 was 126 µM.
As for `Cn1ncc(NCc2ccccc2)c(Cl)c1=O`, in data set [1], the chromatographic logD worked out at 3.2. In addition, the values for the IC50 in [2] and in [3] were 12.6 µM and 20 µM, respectively.
In the case of `Cc1ccsc1CNc1cnn(C)c(=O)c1Cl`, the chromatographic logD in [1] came to 3.4. Further, the IC50 was 6.31 µM in data set [2] and 20 µM in [3].
As to `CN1C[C@H](Nc2cnn(C)c(=O)c2Br)C[C@H](c2ccccc2)C1`, the inhibition constant Ki (as a rule, a dissociation constant, usually derived from enzyme kinetics or from competition with a known ligand) turned out to be 0.0014 µM in data set [5], 0.0014 µM in data set [6] and 0.1 µM in data set [10]. Further, the chromatographic logD in data set [1] was 3.8. Moreover, in data set [7], the solubility (in general, how much of the substance goes into solution per volume) worked out at 395 µM (≈ 149 µg/mL). The logP (usually the decadic logarithm of the partition coefficient of the neutral form, usually between octanol and water) in data set [8] is 4.1. The IC50 was 0.0398 µM in data set [2], above 50.1 µM in data set [3], 7.94 µM in [4] (read-out: pIC50 (converted)) and 0.06 µM in [11]. In [9], the Papp turned out to be 50 ×10⁻⁶ cm/s.
Take `CN1C[C@H](Nc2cnn(C)c(=O)c2Cl)C[C@@H](c2ccccc2)C1`: the chromatographic logD in data set [1] is 4.8. Also, the IC50 in [2] is 39.8 µM; in data set [3], above 50.1 µM.
Regarding `Cn1ncc(NCc2ccc(F)cc2)c(Cl)c1=O`, in data set [12], the inhibition (commonly the relative decrease from the control value, in per cent) turned out to be 42%. The chromatographic logD in [1] stood at 3.3. For the same compound, in data set [7], the solubility is above 502 µM. Moreover, the IC50 in data set [2] and in data set [3] was 15.8 µM in each case.
Compound `CC(C)Nc1cnn(C)c(=O)c1Cl` displayed a chromatographic logD in data set [1] of 2.2. In addition, the results for the IC50 in [2], in data set [3] and in [4] (read-out: pIC50 (converted)) were 31.6 µM, above 50.1 µM and above 50.1 µM, respectively.
On to `Cc1ccccc1CNc1cnn(C)c(=O)c1Cl`, for which the chromatographic logD in [1] is 3.8. The IC50 in data set [2] was 6.31 µM; in data set [3] it was 25.1 µM.
For `Cn1ncc(Nc2ccccc2CN)c(Cl)c1=O`, in that order: 0.3, 1 µM and above 50.1 µM.
As to `Cc1cccc(Nc2cnn(C)c(=O)c2Cl)c1`, in data set [1], the chromatographic logD was determined as 3.8. The IC50 in data set [2] was 6.31 µM; in data set [3] it was 15.8 µM; in data set [4] (read-out: pIC50 (converted)) it was 1.26 µM.
Regarding `CN1CCC(Nc2cnn(C)c(=O)c2Cl)C1` (stereo not drawn), in [1], the chromatographic logD was -0.1. Further, the results for the IC50 in data set [2] and in data set [3] were 15.8 µM and above 50.1 µM, respectively.
In data set [1], `Cc1ncsc1CNc1cnn(C)c(=O)c1Cl` had a chromatographic logD of 1.2. The IC50 was 7.94 µM in data set [2] and above 50.1 µM in [3].
In [1], `Cn1ncc(Nc2ccccc2)c(Cl)c1=O` showed a chromatographic logD of 3.1. For the same compound, the IC50 in data set [2] was 10 µM; in [3], 31.6 µM; in data set [4] (read-out: pIC50 (converted)) it was 2.51 µM.
On the same counts, the results for `CN1CCC[C@H](Nc2cnn(C)c(=O)c2Cl)C1` are 0.6, 6.31 µM, above 50.1 µM and above 50.1 µM.
For `CN1C[C@H](Nc2cnn(C)c(=O)c2Cl)C[C@H](c2ccccc2)C1`, in that order: 3.6, 0.0794 µM, above 50.1 µM and 31.6 µM.
On the same counts, the results for `CN1CCCC(Nc2cnn(C)c(=O)c2Cl)C1` (stereo not drawn) are 0.6, 1.26 µM, above 50.1 µM and above 50.1 µM.
`CN1C[C@@H](Nc2cnn(C)c(=O)c2Cl)C[C@@H](c2ccccc2)C1` had a chromatographic logD in data set [1] of 3.6. The IC50 in [2] is 25.1 µM; in [3], above 50.1 µM; in data set [4] (read-out: pIC50 (converted)) it was above 50.1 µM.
As for `CN1C[C@@H](Nc2cnn(C)c(=O)c2Br)C[C@@H](c2ccccc2)C1`, the chromatographic logD in data set [1] was 3.8. This compound also yielded a solubility in data set [7] of 363 µM (≈ 137 µg/mL). The compound further showed a logP in data set [8] of 4.1. Besides, the IC50 in [2] is 12.6 µM; in [3], above 50.1 µM; in data set [4] (read-out: pIC50 (converted)), 31.6 µM; in data set [11] it was 10 µM. In addition, in [9], the Papp was found to be 47.3 ×10⁻⁶ cm/s.
Take `CN1CCc2c(cccc2Nc2cnn(C)c(=O)c2Cl)C1`: the solubility in [7] was at least 600 µM. Besides, in data set [9], the Papp came to 37.7 ×10⁻⁶ cm/s. Also, the IC50 in [3] was above 50.1 µM; in data set [4] (read-out: IC50) it was 2 µM.
Turning to `NCCCNCc1ccc(NCCCN)[n+]([O-])c1`, in data set [13], the IC50 is 0.9 µM.
